Where two headings read alike, the source gives them in different places. *1 amine or outer side, *2 acyl side, *3 side chain or, on linkers, in order; H or OH if unused. Where a SMILES comes first, the peptide text is derived from it. Side-chain parts run from the residue outwards. [ ]: non-standard residue; d: D form. The star is where a group is joined. X1 = O=C(O)CC[C@H](NC(=O)N[C@@H](CCC(=O)N[C@H](CCCN*)C(=O)O)C(=O)O)C(=O)O; Benzoyl(4-SiFtBu2) = CC(C)(C)[Si](F)(c1ccc(C(=O)*)cc1)C(C)(C)C; dCit = NC(=O)NCCC[C@@H](N)C(=O)O; Suc = O=C(CCC(=O)[*:2])[*:1]; dOrn = NCCC[C@@H](N)C(=O)O; dDap = NC[C@@H](N)C(=O)O
Columns and labels:
HSA = HSA (Homo sapiens, UniProt P02768); settings: cited from earlier work; for Lit. HSA binding: literature values (Yamazaki, Kanaoka 2004); for Log K HSA: logarithmic K of HSA binding literature values
[1] = n-Octanol-PBS partition coefficient (logD7.4); format: physicochemical; settings: 18F-labeled ligand; n-octanol/PBS pH=7.4; mean ± SD (n = 5)
Experimental: Approx. 0.5 MBq of the ^18F-labeled SiFA-PSMA ligand were added into a test tube containing n-octanol (500 μL) and PBS (500 μL, pH=7.4). After vigorously shaking the two-phase mixture for 3 min at rt, the test tube was centrifuged at 9.000 rpm for 5 min to achieve quantitative phase separation. Finally, 150 μL of each layer were pipetted off and measured for activity using a gamma counter. After repeating the experiment for at least five times, the n-octanol-PBS partition coefficient log D7.4 was calculated according to following formula.

PSMA [2] = molecular target: T1, PSMA (Homo sapiens, UniProt Q04609); experiment: IC50 determination: PSMA binding affinity, competition with [125I]XII on LNCaP cells
Experimental: LNCaP cells were grown in Dulbecco's Modified Eagle Medium/Nutrient Mixture F-12 (DMEM/F-12, add. 10% fetal calf serum (FCS), v/v) and maintained at 37° C. in a humidified 5% CO2 atmosphere. […] After removal of the culture medium, LNCaP cells were treated with HBSS (add. 1% BSA, v/v, 4° C., 500 μL) and subsequently left 15 min on ice for equilibration in HBSS (add. 1% BSA, v/v, 4° C., 200 μL). […] For the control series, HBSS (add. 1% BSA, v/v, 25 μL) was used instead of the SiFA-PSMA ligand solution. Each concentration and the control were prepared in triplicate. After 1 h incubation on ice, the assay medium was removed and cells were washed with HBSS (200 μL, 4° C.). […] NaOH (200 μL) for at least 10 min and the resulting cell lysate was removed. The wells were treated again with 1 M aq. […] The experiment was repeated for at least three times and the IC50 value calculated using the GraphPad PRISM 8.0.2 software (Graphpad Software Inc., La Jolla, United States).

LNCaP cells = experiment: Internalization of 18F-labeled ligands into LNCaP cells; format: cell-based, human; settings: internalized activity at 1 h in % of reference [125I]XII; c = 0.5 nM; LNCaP cells (125.000 cells/well); 37° C., DMEM/F-12 add. 5% BSA; corrected for non-specific binding (10 μm PMPA); mean ± SD (n = 3)
Experimental: LNCaP cells were grown in DMEM/F-12 (add. 10% FCS, v/v) and maintained at 37° C. in a humidified 5% CO2 atmosphere. […] Subsequent to the removal of the culture medium, cells were washed with DMEM-F12 (add. 5% BSA, v/v, 500 μL) and left to equilibrate in DMEM-F12 (add. 5% BSA, v/v, 200 μL) at 37° C. for 15 min. Each well was treated with either DMEM-F12 (add. 5% BSA, v/v, 25 μL) or a 2-(phosphonomethyl)-pentandioic acid (PMPA) solution (100 μM in PBS, 25 μL) for blockade. Afterwards, the ^18F-labeled SiFA-PSMA ligand (5 nM in PBS, 25 μL) was added and the cells were incubated for 1 h at 37° C. The experiment was terminated by placing the 24-well plate on ice for 3 min and removal of the assay medium. Each well was rinsed with HBSS (4° C., 250 μL) and the fractions were combined with the previous assay medium, representing the amount of unbound radioligand. For removal of surface bound activity, LNCaP cells were incubated with PMPA solution (10 μM in PBS, 4° C., 250 μL) for 5 min and rinsed again with PBS (250 μL, 4° C.). The internalized activity was determined by incubation of LNCaP cells with 1 M aq. NaOH (250 μL) for at least 10 min and combination with the fraction of a subsequent wash step with 1 M aq. NaOH (200 μL). Each experiment (control and blockade) was performed in triplicate. […] All internalization studies were accompanied by reference studies using the reference compound XII (2 nM in HBSS add. 1% BSA, v/v), which were performed analogously. Data were corrected for non-specific internalization and normalized to the specific-internalization observed for the radioiodinated reference compound.

[3] = molecular target: T2, human serum albumin (HSA) (Homo sapiens, UniProt P02768); experiment: Binding to HSA on a Chiralpak HSA column; format: in vitro ADME; settings: calibration with nine reference substances
T2 construct: purchased H13H-2433
Experimental: For the determination of human serum albumin (HSA) binding, a Chiralpak HSA column (50×3 mm, 5 μm, H13H-2433) was used at a constant flow rate of 0.5 mL/min. The mobile phase composed of a 50 mM NH4OAc solution in water with pH=7 (solvent C) and isopropanol (solvent D) was freshly prepared for each experiment and used only once. The reference substances (Table 1) as well as the analyzed SiFA-PSMA ligands were dissolved in a mixture of solvent C/solvent D (1:1, v/v, 0.5 mg/mL) and eluted from the HSA column (0-3 min: 100% C, 3-20 min: 20% D in C, λ=254 nm). The column was kept at rt and each run was stopped after detection of the signal to reduce the acquisition time. The nine reference substances display an HSA binding range of 13% to 99% and were injected consecutively in order to establish a sigmoidal calibration curve with the software OriginPro 2018b (FIG. 1).

[4] = radiolabeled established inhibitors; literature; cited from earlier work
PSMA [5] = molecular target: T1, PSMA; settings: PSMA binding affinity; literature; cited from earlier work
PSMA [6] = molecular target: T1, PSMA; settings: after 1 h; literature; cited from earlier work
[7] = Wangler et al. 2010; cited from earlier work
[8] = LNCaP cells (150.000 cells/well), reference [125I]XII c = 0.2 nM, 1 h, 4° C., HBSS add. 1% BSA, mean ± SD (n = 3)

T1 sequence (Q04609 whole entry): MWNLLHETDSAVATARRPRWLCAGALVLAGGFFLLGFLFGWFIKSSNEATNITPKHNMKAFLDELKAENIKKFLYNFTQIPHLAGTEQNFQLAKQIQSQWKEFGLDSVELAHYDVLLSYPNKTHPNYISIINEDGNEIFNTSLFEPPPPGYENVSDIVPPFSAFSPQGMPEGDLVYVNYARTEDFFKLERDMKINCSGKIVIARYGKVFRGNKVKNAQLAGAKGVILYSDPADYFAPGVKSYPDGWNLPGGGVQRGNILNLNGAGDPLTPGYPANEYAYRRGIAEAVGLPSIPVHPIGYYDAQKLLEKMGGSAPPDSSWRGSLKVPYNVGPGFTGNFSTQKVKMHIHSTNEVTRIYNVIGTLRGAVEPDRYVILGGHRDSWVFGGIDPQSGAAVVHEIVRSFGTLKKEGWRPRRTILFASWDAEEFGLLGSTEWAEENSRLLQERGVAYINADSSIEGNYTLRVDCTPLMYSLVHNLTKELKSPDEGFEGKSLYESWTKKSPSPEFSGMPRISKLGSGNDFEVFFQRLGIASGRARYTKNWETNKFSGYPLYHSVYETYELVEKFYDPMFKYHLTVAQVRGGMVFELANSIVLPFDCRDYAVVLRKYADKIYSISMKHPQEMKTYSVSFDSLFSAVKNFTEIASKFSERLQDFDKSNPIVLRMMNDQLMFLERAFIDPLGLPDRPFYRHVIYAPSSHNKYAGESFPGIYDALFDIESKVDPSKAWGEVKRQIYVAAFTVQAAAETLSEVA
Sequence of HSA (P02768 25-609): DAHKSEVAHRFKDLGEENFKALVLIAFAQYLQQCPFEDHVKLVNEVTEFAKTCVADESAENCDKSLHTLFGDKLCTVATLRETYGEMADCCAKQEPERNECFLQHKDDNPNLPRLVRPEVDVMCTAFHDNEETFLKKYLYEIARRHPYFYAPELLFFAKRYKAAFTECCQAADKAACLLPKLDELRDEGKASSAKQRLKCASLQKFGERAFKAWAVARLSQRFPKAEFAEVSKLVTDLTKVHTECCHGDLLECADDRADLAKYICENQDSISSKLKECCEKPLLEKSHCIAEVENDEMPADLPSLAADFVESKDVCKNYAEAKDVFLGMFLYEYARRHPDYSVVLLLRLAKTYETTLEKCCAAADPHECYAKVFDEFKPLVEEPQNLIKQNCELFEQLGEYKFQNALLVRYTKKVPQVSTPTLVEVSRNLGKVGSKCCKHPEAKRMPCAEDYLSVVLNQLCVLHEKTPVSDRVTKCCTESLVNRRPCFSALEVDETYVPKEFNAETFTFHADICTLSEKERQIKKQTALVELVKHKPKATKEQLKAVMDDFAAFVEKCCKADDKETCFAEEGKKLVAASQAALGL
T2 sequence (P02768 25-609): as above

## Nc1ccccc1 [Aniline]
HSA
  Lit. HSA binding: 14.06%
  Log K HSA: −0.7912

## OCc1ccccc1 [Benzyl alcohol]
HSA
  Lit. HSA binding: 13.15%
  Log K HSA: −0.8248

## COc1ccc(Cl)cc1C(=O)NCCc1ccc(S(=O)(=O)NC(=O)NC2CCCCC2)cc1 [Glibenclamide]
HSA
  Lit. HSA binding: 99.00%
  Log K HSA: 1.695

## Oc1ccccc1 [Phenol]
HSA
  Lit. HSA binding: 20.69%
  Log K HSA: −0.589

## CC(C)(C)[Si](F)(c1ccc(C(=O)NC[C@@H](NC(=O)[C@@H](CCCN)NC(=O)[C@@H](CCC(=O)O)NC(=O)[C@H](N)CCC(=O)O)C(=O)N[C@H](CCCCNC(=O)CCC(=O)NCCC[C@@H](NC(=O)CC[C@H](NC(=O)N[C@@H](CCC(=O)O)C(=O)O)C(=O)O)C(=O)O)C(=O)O)cc1)C(C)(C)C [SiFA-PSMA ligand 03 e] (H-[dE][dE][dOrn][dDap](Benzoyl(4-SiFtBu2))[dK]([Suc-X1])-OH)
[1]
  logD7.4: −3.40 ± 0.17
PSMA [2]; [8]
  IC50: 8.5 ± 1.2 nM
LNCaP cells
  Internalization: 111.98 ± 3.90%
[3]
  Binding to HSA: 97.5%

## CC(C)(C)[Si](F)(c1ccc(C(=O)NC[C@@H](NC(=O)[C@@H](CCCCN)NC(=O)[C@@H](CCC(=O)O)NC(=O)[C@H](N)CCC(=O)O)C(=O)N[C@H](CCCCNC(=O)CCC(=O)NCCC[C@@H](NC(=O)CC[C@H](NC(=O)N[C@@H](CCC(=O)O)C(=O)O)C(=O)O)C(=O)O)C(=O)O)cc1)C(C)(C)C [SiFA-PSMA ligand 03 f] (H-[dE][dE][dK][dDap](Benzoyl(4-SiFtBu2))[dK]([Suc-X1])-OH)
[1]
  logD7.4: −3.43 ± 0.02
PSMA [2]; [8]
  IC50: 6.9 ± 1 nM
LNCaP cells
  Internalization: 94.24 ± 6.01%
[3]
  Binding to HSA: 96.9%

## CC(C)(C)[Si](F)(c1ccc(C(=O)NC[C@@H](NC(=O)CNC(=O)[C@@H](CCC(=O)O)NC(=O)[C@H](N)CCC(=O)O)C(=O)N[C@H](CCCCNC(=O)CCC(=O)NCCC[C@@H](NC(=O)CC[C@H](NC(=O)N[C@@H](CCC(=O)O)C(=O)O)C(=O)O)C(=O)O)C(=O)O)cc1)C(C)(C)C [SiFA-PSMA ligand 03 g]
[1]
  logD7.4: −3.56 ± 0.04
PSMA [2]; [8]
  IC50: 11.9 ± 2 nM
LNCaP cells
  Internalization: 121.44 ± 3.72%
[3]
  Binding to HSA: 98.4%

## C[C@H](O)[C@@H](NC(=O)[C@@H](CCC(=O)O)NC(=O)[C@H](N)CCC(=O)O)C(=O)N[C@H](CNC(=O)c1ccc([Si](F)(C(C)(C)C)C(C)(C)C)cc1)C(=O)N[C@H](CCCCNC(=O)CCC(=O)NCCC[C@@H](NC(=O)CC[C@H](NC(=O)N[C@@H](CCC(=O)O)C(=O)O)C(=O)O)C(=O)O)C(=O)O [SiFA-PSMA ligand 03 h] (H-[dE][dE][dT][dDap](Benzoyl(4-SiFtBu2))[dK]([Suc-X1])-OH)
[1]
  logD7.4: −3.66 ± 0.03
PSMA [2]; [8]
  IC50: 10.7 ± 2.1 nM
LNCaP cells
  Internalization: 107.42 ± 3.66%
[3]
  Binding to HSA: 97.8%

## CC(C)(C)[Si](F)(c1ccc(C(=O)NC[C@@H](NC(=O)[C@@H](Cc2ccccc2)NC(=O)[C@@H](CCC(=O)O)NC(=O)[C@H](N)CCC(=O)O)C(=O)N[C@H](CCCCNC(=O)CCC(=O)NCCC[C@@H](NC(=O)CC[C@H](NC(=O)N[C@@H](CCC(=O)O)C(=O)O)C(=O)O)C(=O)O)C(=O)O)cc1)C(C)(C)C [SiFA-PSMA ligand 03 i] (H-[dE][dE][dF][dDap](Benzoyl(4-SiFtBu2))[dK]([Suc-X1])-OH)
[1]
  logD7.4: −2.30 ± 0.03
PSMA [2]; [8]
  IC50: 20.6 ± 1.8 nM
LNCaP cells
  Internalization: 50.33 ± 2.97%
[3]
  Binding to HSA: 98.9%

## CC(C)(C)[Si](F)(c1ccc(C(=O)NC[C@@H](NC(=O)[C@H](N)CNC(=O)[C@@H](CCC(=O)O)NC(=O)[C@H](N)CCC(=O)O)C(=O)N[C@H](CCCCNC(=O)CCC(=O)NCCC[C@@H](NC(=O)CC[C@H](NC(=O)N[C@@H](CCC(=O)O)C(=O)O)C(=O)O)C(=O)O)C(=O)O)cc1)C(C)(C)C [SiFA-PSMA ligand 04]
[1]
  logD7.4: −3.33 ± 0.11
PSMA [2]
  IC50: 12.2 ± 1.9 nM
LNCaP cells
  Internalization: 124.49 ± 2.61%
[3]
  Binding to HSA: 97.9%

## CC(C)(C)[Si](F)(c1ccc(C(=O)NC[C@@H](NC(=O)[C@@H](CCCNC(N)=O)NC(=O)[C@@H](CCCNC(N)=O)NC(=O)[C@H](N)CCCNC(N)=O)C(=O)N[C@H](CCCCNC(=O)CCC(=O)NCCC[C@@H](NC(=O)CC[C@H](NC(=O)N[C@@H](CCC(=O)O)C(=O)O)C(=O)O)C(=O)O)C(=O)O)cc1)C(C)(C)C [SiFA-PSMA ligand 05] (H-[dCit][dCit][dCit][dDap](Benzoyl(4-SiFtBu2))[dK]([Suc-X1])-OH)
[1]
  logD7.4: −3.17 ± 0.02
PSMA [2]
  IC50: 16.2 ± 2 nM
LNCaP cells
  Internalization: 90.13 ± 6.13%
[3]
  Binding to HSA: 95.7%

## CC(C)(C)[Si](F)(c1ccc(C(=O)N[C@H](CC(=O)N[C@H](CCCCNC(=O)CCC(=O)NCCC[C@@H](NC(=O)CC[C@H](NC(=O)N[C@@H](CCC(=O)O)C(=O)O)C(=O)O)C(=O)O)C(=O)O)C(=O)N[C@H](CCCCNC(=O)CCC(=O)NCCC[C@@H](NC(=O)CC[C@H](NC(=O)N[C@@H](CCC(=O)O)C(=O)O)C(=O)O)C(=O)O)C(=O)O)cc1)C(C)(C)C [SiFA-PSMA ligand 06]
[1]
  logD7.4: −3.77 ± 0.04
PSMA [2]
  IC50: 7.4 ± 1.9 nM
LNCaP cells
  Internalization: 270.03 ± 16.10%
[3]
  Binding to HSA: ≥98.9%

## O=C(O)CC[C@H](NC(=O)N[C@@H](CCCCNC(=O)[C@H](Cc1ccc2ccccc2c1)NC(=O)[C@H]1CC[C@H](CNC(=O)CN2CCN(CC(=O)O)CCN(CC(=O)O)CCN(CC(=O)O)CC2)CC1)C(=O)O)C(=O)O [[^68Ga]PSMA-617, PSMA-617, metal not drawn]
[4]
  logP(o/w): −4.30 ± 0.10

## O=C(O)CC[C@H](NC(=O)N[C@@H](CCCCNC(=O)c1ccc([18F])nc1)C(=O)O)C(=O)O [[^natF/^18F]DCFPyI, DCFPyI]
[4]
  logP(o/w): −3.4

## O=C([O-])CN(CCN(CC(=O)[O-])Cc1cc(CCC(=O)NCCCCCC(=O)NCCCC[C@H](NC(=O)N[C@@H](CCC(=O)O)C(=O)O)C(=O)O)ccc1[O-])Cc1cc(CCC(=O)O)ccc1[O-].[68Ga+3].[OH3+] [[^natGa/^68Ga]PSMA-11, PSMA-11]
PSMA [5]
  IC50: 6.1 ± 0.8 nM
[4]
  logP(o/w): −4.1 ± 0.1
PSMA [6]
  Internalization (1 h): 91.1 ± 1.7

## PSMA I&T [[^natGa/^68Ga]PSMA I&T]
PSMA [5]
  IC50: 9.3 ± 3.3 nM
[4]
  logP(o/w): −4.3 ± 0.3
PSMA [6]
  Internalization (1 h): 59.2 ± 1.7

## PSMA-1007 [[^natF/^18F]PSMA-1007]
PSMA [5]
  IC50: 4.2 ± 0.5 nM
[4]
  logP(o/w): −1.6

## SiFA-Asn(AcNH-β-Glc)-PEG-Tyr^3-octreotate
[7]
  log P(ow): 0.96

## SiFA-Asn(AcNH-β-Glc)-Tyr^3-octreotate
[7]
  log P(ow): 1.23
